Measurements taken from patent US20220332799A1, “HERV INHIBITORS FOR USE IN TREATING TAUOPATHIES” (Deutsches Zentrum Für Neurodegenerative Erkrankungen E.V. …, priority 2019, published 2022).
Entries after “also recorded” stand apart in the source; their conditions may differ. Where two headings read alike, the source gives them in different places.

Legend:
[1] = tested on: N2a NM-GFP^sol cells; type: cell-based, mouse; conditions: for percentage of recipient cells with NM-GFP aggregates: compounds added to cocultures 1 h after co-seeding, three concentrations, 12 h
[2] = tested on: MuERV Env and Gag; type: cell-based, mouse; conditions: s2E P1 donors; Aza 200 nM or Dec 100 nM, then 5 days without drug; vs DMSO
Experimental: To inhibit methyltransferases, s2E P1 donor cells were treated for three days with methyltransferase inhibitors 5-Azacytidine (Aza) 200 nM, Decitabine (Dec) 100 nM or DMSO as solvent control. Subsequently, the cells were cultured in the absence of the drugs for 5 days. Pre-treated donor cells were subsequently cocultured with recipient cells as described above to monitor aggregate induction efficiency in recipient N2a NM-GFP^sol cells. Cell lysates of donor cells were also analyzed for MuERV Env and Gag expression levels by western blot. To increase DNA methylation, the s2E donor clone (P21) was treated with methyl group donors L-methionine (L-M) 80 mM, Betaine (B) 80 mM, Choline chloride (CC) 20 mM or medium control for 6 days. MuERV Env and Gag protein levels were analyzed by western blot. Subsequently, cells were cocultured with recipient cells for 16 h. The percentage of aggregate containing recipient cells was compared to the percentage of aggregate bearing recipients cocultured with solvent-treated donors.
Pre-designed siRNAs against murine XPR1 and mCat-1 genes were used to knock-down genes coding for putative receptors. For transfection, 2-4×10^5 cells/well were seeded on 6 well plates. The next day, 30 nM siRNA or plasmid DNA was transfected using Lipofectamine RNAiMAX or Lipofectamine2000 transfection reagent, respectively, according to the manufacturer's instructions (Thermo Fisher Scientific). After 2 days, transfected cells were harvested for aggregate induction assays and qRT-PCR, western blot analysis.
For Western blot analysis, protein concentrations were measured using the Quick Start™ Bradford Protein assay (Bio-Rad). Proteins were separated on NuPAGE®Novex® 4-12 Bis-Tris Protein Gels (Life Technologies) followed by transfer onto a PVDF membrane (GE Healthcare). Western blot analysis was performed using rat hybridoma anti-MuERV Env mAb83A25; anti-xenotropic MuLV virus antibody ABIN457298 for detecting both Env and Gag (antibodies-online); mouse anti-MuERV Gag ab100970 (Abcam); mouse anti-Alix (1:1000; BD Bioscience); rat anti-HA 3F10 (1:1000; Roche); mouse anti-GAPDH 6C5 (1:5000; Abcam); mouse anti-Hsc/Hsp70 N27F3-4 (1:1000; ENZO); mouse anti-VSV-G A5977 (Sigma); rabbit anti-Tau ab64193 (Abcam); mouse anti-HERV K Env HERM-1811-5 (Amsbio); mouse anti-HERV K Gag HERM-1841-5 (Amsbio). The membrane was incubated with Pierce™ ECL Western Blotting Substrate (Thermo Fisher Scientific) according to the manufacturer's recommendations.

[3] = tested on: HEK Tau-FusionRed^sol cells expressing murine XPR1-HA; test: Tau aggregate induction in recipient cells by coculture with N2a s2E Tau-GFP^CBD donor cells; type: cell-based, human; conditions: donors pretreated with 10 μM; coculture 3 d in the presence of 10 μM; vs DMSO
Experimental: To examine this effect on Tau aggregate spreading, an N2a s2E cell clone stably propagating aggregated Tau-GFP^CBD was produced (FIG. 11a). […]. Cells and EVs were analyzed for the presence of aggregated Tau-GFP. Pronase-resistant Tau-GFP was found in both cell lysate and EVs (FIG. 2q). To inhibit MuERV gene product maturation, donor cells were treated with Amprenavir for three days. Donor cells and donor cell-derived EVs were subsequently exposed for three days to recipient HEK cells expressing soluble Tau-FusionRed and the murine XPR1 receptor variant required for MuERV Env interaction. Due to this long incubation time, the coculture and EV induction assays were performed in the presence of Amprenavir (FIG. 11b). […]
Recipient cells were cultured on CellCarrier-96 plates or 384 black microplates (PerkinElmer) at appropriate cell numbers for 1 h, and then treated with 5-10 μl of prepared samples (isolated EVs or recombinant NM fibrils). […] On average, a total of 3-4×10^4 cells per well and at least 3 wells per treatment were analyzed.
The treatment of cells with Amprenavir (10 μM; Santa Cruz) and DMSO was performed for 72 h in EV-depleted medium in T175 flasks. Afterwards, the total numbers of viable cells and the viability upon drug treatment were determined using the Vi-VELL™ XR Cell Viability Analyzer (Beckman Coulter). […]

Row | SMILES | NM aggregate induction in recipient cells cocultured with pretreated donors ([1]; s2E P1 donors pretreated, Aza 200 nM or Dec 100 nM, vs DMSO) | expression of MuERV proteins [2] | percentage of recipient cells with NM-GFP aggregates ([1]; vs DMSO) | percentage of recipient cells with NM-GFP aggregates ([1]; vs DMSO, listed as amprenavir) | intercellular aggregate induction during coculture ([1]; donor cells pre-treated with 10 μM for 3 days, coculture in the absence of drug, 16 h) | Tau-FusionRed aggregate induction in cocultures [3]
1 | Nc1ncn([C@H]2C[C@H](O)[C@@H](CO)O2)c(=O)n1 [Decitabine, 5-aza-2′-deoxycytidine] | significantly increased NM aggregate induction in recipient cells | increased expression | – | – | – | –
2 | CC(C)CN(C[C@@H](O)[C@H](Cc1ccccc1)NC(=O)O[C@H]1CCOC1)S(=O)(=O)c1ccc(N)cc1 [Amprenavir] | – | – | reduce aggregate induction; also recorded: observed only when donor cells were cotreated | reduced the percentage of recipient cells with NM-GFP aggregates | significantly inhibited intercellular aggregate induction during coculture | decreased Tau-FusionRed aggregate induction in Amprenavir-treated cocultures; also recorded: significantly decreased Tau-FusionRed aggregate induction in recipients
